This assay addresses FGFR4 (Homo sapiens (Human), UniProt P22455). Description: FGFR Enzymatic Assay (FRET peptide phosphorylation), FGFR4. The note with it: IC50 ratio showing FGFR4 selectivity.
Where [1] appears, read: pre-incubated for 5 to 10 minutes.

Molecules are shown by their SMILES.

Chain of FGFR4 (P22455 22-802): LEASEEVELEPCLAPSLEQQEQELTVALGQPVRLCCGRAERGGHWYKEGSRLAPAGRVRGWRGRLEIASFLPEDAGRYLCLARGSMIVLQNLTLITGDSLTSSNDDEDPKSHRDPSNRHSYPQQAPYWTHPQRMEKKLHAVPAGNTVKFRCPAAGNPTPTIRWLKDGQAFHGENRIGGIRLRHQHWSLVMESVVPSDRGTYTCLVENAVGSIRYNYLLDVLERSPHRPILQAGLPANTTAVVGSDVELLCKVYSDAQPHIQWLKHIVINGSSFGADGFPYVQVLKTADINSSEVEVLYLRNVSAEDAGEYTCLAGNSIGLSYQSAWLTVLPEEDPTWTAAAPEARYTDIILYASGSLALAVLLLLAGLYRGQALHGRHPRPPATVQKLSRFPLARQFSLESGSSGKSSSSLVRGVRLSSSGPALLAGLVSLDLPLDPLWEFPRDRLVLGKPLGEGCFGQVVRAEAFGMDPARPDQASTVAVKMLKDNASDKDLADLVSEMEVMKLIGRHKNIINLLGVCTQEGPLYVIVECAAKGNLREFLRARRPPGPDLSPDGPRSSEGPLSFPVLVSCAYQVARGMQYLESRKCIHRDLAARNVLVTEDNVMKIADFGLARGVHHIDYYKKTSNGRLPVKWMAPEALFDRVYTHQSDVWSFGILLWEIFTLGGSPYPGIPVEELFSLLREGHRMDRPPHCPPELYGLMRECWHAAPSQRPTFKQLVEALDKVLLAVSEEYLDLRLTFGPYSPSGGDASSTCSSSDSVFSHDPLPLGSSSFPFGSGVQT
Description: The enzymes were purchased from Millipore or Invitrogen.
GraphPad prism3 was used to analyze the data. The IC50 values were derived by fitting the data to the equation for a sigmoidal dose-response with a variable slope. Y=Bottom+(Top−Bottom)/(1+10^((Log IC50−X)*HillSlope)) where X is the logarithm of concentration and Y is the response.

`C=CC(=O)Nc1cnn(Cc2ccnn2C)c1-c1cc2c(cn1)CN(c1c(F)c(OC)cc(OC)c1F)C(=O)C21CC1` [Example 26, N-(5-(2′-(2,6-difluoro-3,5-dimethoxyphenyl)-3′-oxo-2′,3′-dihydro-1′H-spiro[cyclopropane-1,4′-[2,7]naphthyridine]-6′-yl)-1-((1-methyl-1H-pyrazol-5-yl)methyl)-1H-pyrazol-4-yl)acrylamide]: where the note is “pre-incubated for 4 hours”, the FGFR1/FGFR4 is more than 100, the FGFR2/FGFR4 is more than 50 and the FGFR3/FGFR4 is on record as more than 100.

For `C=CC(=O)Nc1cnn(CCOCC)c1-c1cc2c(cn1)CN(c1c(F)c(OC)cc(OC)c1F)C(=O)C21CC1` [Example 16, N-(5-(2′-(2,6-difluoro-3,5-dimethoxyphenyl)-3′-oxo-2′,3′-dihydro-1′H-spiro[cyclopropane-1,4′-[2,7]naphthyridine]-6′-yl)-1-(2-ethoxyethyl)-1H-pyrazol-4-yl)acrylamide], where the note is “pre-incubated for 4 hours”, the FGFR1/FGFR4 is recorded as more than 100, the FGFR2/FGFR4 was more than 100 and the FGFR3/FGFR4 is reported as more than 100.

With `C=CC(=O)Nc1cnn(Cc2cnn(C)c2)c1-c1cc2c(cn1)CN(c1c(F)c(OC)cc(OC)c1F)C(=O)C21CC1` [Example 27, N-(5-(2′-(2,6-difluoro-3,5-dimethoxyphenyl)-3′-oxo-2′,3′-dihydro-1′H-spiro[cyclopropane-1,4′-[2,7]naphthyridine]-6′-yl)-1-((1-methyl-1H-pyrazol-4-yl)methyl)-1H-pyrazol-4-yl)acrylamide], where the note is “pre-incubated for 4 hours”, the FGFR1/FGFR4 was more than 100, the FGFR2/FGFR4 was more than 100 and the FGFR3/FGFR4 is listed as more than 100.

`C=CC(=O)Nc1ccc(C#N)c(-c2cc3c(cn2)CN(c2c(F)c(OC)cc(OC)c2F)C(=O)C32CC2)c1` [Example 5, N-(4-cyano-3-(2′-(2,6-difluoro-3,5-dimethoxyphenyl)-3′-oxo-2′,3′-dihydro-1′H-spiro[cyclopropane-1,4′-[2,7]naphthyridine]-6′-yl)phenyl)acrylamide]: under setting [1], the FGFR1/FGFR4 is reported as more than 100, the FGFR2/FGFR4 is reported as more than 100 and the FGFR3/FGFR4 is more than 100. Further, under “pre-incubated for 4 hours”, the FGFR1/FGFR4 was more than 100, the FGFR2/FGFR4 is on record as more than 100 and the FGFR3/FGFR4 is reported as more than 100.

In the case of `C=CC(=O)Nc1cn[nH]c1-c1cc2c(cn1)CN(c1c(F)c(OC)cc(OC)c1F)C(=O)C21CC1` [Example 14, N-(5-(2′-(2,6-difluoro-3,5-dimethoxyphenyl)-3′-oxo-2′,3′-dihydro-1′H-spiro[cyclopropane-1,4′-[2,7]naphthyridine]-6′-yl)-1H-pyrazol-4-yl)acrylamide], for the setting “pre-incubated for 4 hours”, the FGFR1/FGFR4 is listed as more than 100, the FGFR2/FGFR4 is more than 100 and the FGFR3/FGFR4 is more than 100.

Take `C=CC(=O)Nc1cn(CC(=O)N(C)C)nc1-c1cc2c(cn1)CN(c1c(F)c(OC)cc(OC)c1F)C(=O)C21CC1` [Example 36, N-(3-(2′-(2,6-difluoro-3,5-dimethoxyphenyl)-3′-oxo-2′,3′-dihydro-1′H-spiro[cyclopropane-1,4′-[2,7]naphthyridine]-6′-yl)-1-(2-(dimethylamino)-2-oxoethyl)-1H-pyrazol-4-yl)acrylamide]: where the note is “pre-incubated for 4 hours”, the FGFR1/FGFR4 is on record as more than 100, the FGFR2/FGFR4 was more than 100 and the FGFR3/FGFR4 is recorded as more than 100.

On to `C=CC(=O)Nc1cc(CN2CCOCC2)cc(-c2cc3c(cn2)CN(c2c(F)c(OC)cc(OC)c2F)C(=O)C32CC2)c1` [Example 11, N-[3-[2′-(2,6-difluoro-3,5-dimethoxyphenyl)-3′-oxo-2′,3′-dihydro-1′H-spiro[cyclopropane-1,4′-[2,7]naphthyridin]-6′-yl]-5-(morpholin-4-ylmethyl)phenyl]acrylamide], for which, under setting [1], the FGFR1/FGFR4 is on record as more than 100, the FGFR2/FGFR4 is more than 100 and the FGFR3/FGFR4 is recorded as more than 100. Where the note is “pre-incubated for 4 hours”, the FGFR1/FGFR4 is more than 100, the FGFR2/FGFR4 is on record as more than 100 and the FGFR3/FGFR4 is more than 100.
